The values that follow come from patent US5217882A, “Microbial transformation process for producing antihypertensive N2 -glucuronide products” (Merck & Co., Inc., priority 1992, dated 1993).

For this test, the target named is T1, Angiotensin II (A II) receptor (Oryctolagus cuniculus, UniProt P34976).
T1 construct: tissue Pel-Freeze Biologicals; host or cells: rabbit aorta, membrane preparation
T1 sequence (P34976 1-359): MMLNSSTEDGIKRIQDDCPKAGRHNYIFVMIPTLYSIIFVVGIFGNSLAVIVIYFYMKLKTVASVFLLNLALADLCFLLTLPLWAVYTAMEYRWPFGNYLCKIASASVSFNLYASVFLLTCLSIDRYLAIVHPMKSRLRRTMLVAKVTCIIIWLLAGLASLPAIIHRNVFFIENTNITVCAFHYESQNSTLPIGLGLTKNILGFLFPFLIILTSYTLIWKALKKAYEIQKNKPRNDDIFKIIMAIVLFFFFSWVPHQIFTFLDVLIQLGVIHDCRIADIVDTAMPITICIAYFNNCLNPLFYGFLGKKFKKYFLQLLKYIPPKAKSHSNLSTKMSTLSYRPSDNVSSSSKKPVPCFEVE
The test is described as follows: Receptor binding assay using rabbit aortae membrane preparation ("IC50" assay; displacement of 125I-Sar1 Ile8-angiotensin II). As to conditions: 37° C. for 90 minutes, read-out: inhibitory concentration (IC50) giving 50% displacement of total specifically bound 125I-Sar1 Ile8-angiotensin II. The protocol: This assay is also referred to herein as the "IC50 " assay.
Receptor binding assay using rabbit aortae membrane preparation
Three frozen rabbit aortae (obtained from Pel-Freeze Biologicals) were suspended in 5 mM Tris-0.25M Sucrose, pH 7.4 buffer (50 ml) homogenized, and then centrifuged. The mixture was filtered through a cheesecloth and the supernatant was centrifuged for 30 minutes at 20,000 rpm at 4° C. The pellet thus obtained was resuspended in 30 ml of 50 mM Tris-5 mM MgCl2 buffer containing 0.2% Bovine Serum Albumin and 0.2 mg/ml Bacitration and the suspension was used for 100 assay tubes. Samples tested for screening were done in duplicate. To the membrane preparation (0.25 ml) there was added ^125 I-Sar^1 -Ile^8 -angiotensin II [obtained from New England Nuclear] (10 ul; 20,000 cpm) with or without the test sample and the mixture was incubated at 37° C. for 90 minutes. The mixture was then diluted with ice-cold 50 mM Tris-0.9% NaCl, pH 7.4 (4 ml) and filtered through a glass fiber filter (GF/B Whatman 2.4" diameter). The filter was soaked in scintillation cocktail (10 ml) and counted for radioactivity using Packard 2660 Tricarb liquid scintillation counter. […]

Molecules are shown by their SMILES. pIC50: −log10 of the molar value. Some results are limits rather than exact numbers.

Regarding `CCCCc1nc(Cl)c(CO)n1Cc1ccc(-c2ccccc2-c2nnn(C3OC(C(=O)O)C(O)C(O)C3O)n2)cc1` (stereo not shown) [compound (I)], the pIC50 was > 4.30.
